Test results reported in patent US20030157704A1, “Reagents and methods for identifying and modulating expression of genes regulated by CDK inhibitors” (priority 2001, published 2003).

Legend:
[1] = tested on: C8 cells; assay: Apoptosis assay in serum-starved C8 cells; type: cell-based, mouse; conditions: addition of IPTG by itself
Method: To verify the induction of secreted mitogenic and anti-apoptotic factors by p21, conditioned media from IPTG-treated HT1080 p21-9 cells were tested to investigate whether they would have an effect on cell growth and apoptosis. In these experiments, conditioned media were prepared by plating 10^6 HT1080 p21-9 cells per 15 cm plate in the presence of DMEM/10% FCS. The next day, IPTG was added to a final concentration of 50 μM, and this media was replaced three days later with DMEM supplemented with 0.5% FCS and 50 μM IPTG. Two days later (days 3-5 of IPTG treatment), this conditioned media was collected and stored at 4° C. up to 15 days before use. Control media were prepared by adding IPTG-free DMEM/0.5% FCS to untreated cells grown to the same density as IPTG-treated cells and collecting the media two days thereafter.
The effect of this conditioned media on apoptosis was also determined. […] Apoptosis was analyzed by plating 3×10^5 C8 cells per 6-cm plate, and replacing the media on the following day with fresh media supplemented with 0.4% serum or with conditioned media (no fresh serum added). DNA content analysis and DAPI staining were carried out after 24 hrs and 48 hrs, and relative cell numbers were measured by methylene blue staining (Perry et al., 1992, Mutat. Res. 276: 189-197) after 48 hrs in low-serum media.

[2] = tested on: NFκB-dependent promoter; assay: Transient transfection of pNFkB-Luc into HT1080 p21-9 cells, firefly luciferase; type: cell-based, human; conditions: different concentrations of IPTG
Text: To determine if IPTG-inducible p21 expression in HT1080 p21-9 cells stimulates the transcriptional activity of NFκB, we have used transient transfection assays to investigate the effect of p21 induction on luciferase expression from the plasmid pNFkB-Luc, commercially available from Stratagene. This plasmid expresses firefly luciferase from an artificial promoter containing five tandemly repeated NFκB consensus sequences. We have also generated by PCR a version of the same promoter that contains only one NFκB consensus sequence using primers identified as SEQ ID Nos. 80 and 83. The sequences of these two promoters are identified as SEQ ID NOs. 78 and 79.
The ability of p21 to induce these promoters was tested by transient transfection assays, as described in Example 8, using different concentrations of IPTG that induce p21 to different levels.
This plasmid is referred to below as IKK. To determine the effect of p300/CBP inhibition on luciferase expression from pNFkB-Luc, the latter plasmid was similarly mixed in another assay with a vector expressing a truncated gene for adenoviral E1A protein with a C-terminal deletion {ΔCR2 (120-140)}. […] The E1AΔCR2 and E1AΔN/ΔCR2 constructs were provided by Dr. V. Ogryzko (NICHHD, NIH). […] The firefly luciferase activity was measured and normalized to Renilla luciferase activity measured (in the absence of IPTG) in each transfected sample.

[3] = tested on: HT1080 p21-9 cells; assay: Labeling index (3H-thymidine) and mitotic index; type: cell-based, human
Method: Cell growth in the presence of IPTG was assayed in three ways: measuring ^3H-thymidine incorporation (termed the “labeling index”); observing the number of mitotic cells in the culture by microscopy (termed the “mitotic index”) and determining the distribution of the culture cells in different portions of the cell cycle (termed the “cell cycle distribution”).
^3H-thymidine incorporation assays were performed substantially as described by Dimri et al. (1995, Proc. Natl. Acad. Sci. USA 92: 9363-9367). Cells were cultured in the presence of ^3H-thymidine for 3 h, and then analyzed by autoradiography. DNA replication was determined by autoradiography ceased entirely by 9 hours after addition of IPTG to the culture media. The mitotic index was determined by observing cells microscopically and calculating the number of cells in mitosis after staining with 5 μg/mL 4,6-diamino-2-phenylindole (DAPI), and images were collected using a Leica DMIRB fluorescence microscope and Vaytek (Fairfield, Iowa) imaging system. Microscopically-detectable mitotic cells disappeared from these cultures by 14 hrs of IPTG treatment.

[4] = tested on: HT1080 p27-2 cells; assay: Cell cycle distribution by FACS analysis of DNA content; type: cell-based, human; conditions: 50 μM IPTG, 24 hrs
Method: This cell population was subcloned, and 20 clonal cell lines were isolated and tested for IPTG-inducible growth inhibition. Cell line showing the strongest growth inhibition was designated HT1080 p16-5. This cell line has been deposited on Jan. 31, 2002 in the American Type Culture Collection (A.T.C.C.), Manassas, Va. and given Accession Number PTA-4020. […] Fractions of cells in different phases of the cell cycle were determined using FACS analysis of DNA content after staining with propidium iodide as described by Jordan et al. (1996, Cancer Res. 56:816-825) using Becton Dickinson FACSort. Cell cycle distribution stabilized after 24 hrs of IPTG treatment, by which time 93% of IPTG-treated cells were arrested in G1. Such G1 arrest is expected from the inhibition of CDK4/6 by p16.
Similarly, the G418-selected population of LNp27RO2 transduced cells was subcloned, and 38 clonal cell lines were isolated and tested for IPTG-inducible growth inhibition. Cell line showing the strongest growth inhibition was designated HT1080 p27-2. This cell line has been deposited on Jan. 31, 2002 in the American Type Culture Collection (A.T.C .C.), Manassas, Va. and given Accession Number PTA-4021. […] Cell cycle distribution stabilized after 24 hrs of IPTG treatment, by which time 89% of IPTG-treated cells were arrested in G1. Such G1 arrest is expected from the inhibition of CDK4/6 by p16.

[5] = tested on: HT1080 p21-9 cells; assay: as above; type: cell-based, human; conditions: 24 hrs of IPTG treatment
Method: Cell cycle distribution was determined using FACS analysis of DNA content after staining with propidium iodide as described by Jordan et al. (1996, Cancer Res. 56: 816-825) using Becton Dickinson FACSort. Cell cycle distribution stabilized after 24 hrs of IPTG treatment. By this time, 42-43% of IPTG-treated cells were arrested in G1 and G2, respectively, and about 15% of the cells were arrested with S-phase DNA content. IPTG-treated HT1080 p21-9 cells also developed morphological senescence markers (enlarged and flattened morphology and increased granularity), as well as SA-β-gal activity (Chang et al., 1999, ibid.).

## CC(C)S[C@@H]1O[C@H](CO)[C@H](O)[C@H](O)[C@H]1O [IPTG, isopropyl-β-thiogalactoside]
[1]
  apoptosis in C8 cells: no effect
[2]
  induction of promoters containing five or one NFκB site: dose-dependent induction
[3]; DAPI staining, microscopy
  time of IPTG treatment by which mitotic cells disappeared: ≤ 14 h
[3]; autoradiography of 3H-thymidine incorporation
  time after addition of IPTG by which DNA replication ceased entirely: ≤ 9 h
[4]
  cells arrested in G1: 89%
[5]
  cells arrested in G1 and G2, respectively: 42-43%
  cells arrested with S-phase DNA content: about 15%
